Reference: patent US8679495B2, “Use of anti-90K monoclonal antibodies for the prevention and treatment of tumors and metastases thereof” (MediaPharma S.r.l., priority 2009, dated 2014)

Tested on: human breast cancer cell MDA-MD-231
Assay: Tumor growth of breast cancer cells injected subcutaneously in nude mice
Assay type: in vivo
Conditions: MDA-MD-231 in nude mice, intraperitoneal, SP-2 10 μg/kg twice a week, docetaxel 7.5 mg/kg once a week, up to 44 days
Method: Materials and methods: Nude mice were injected subcutaneously with 5×10^6 human breast cancer cell MDA-MD-231 (cells expressing 90K). One group was injected by intraperitoneal route with phosphate buffer and served as a control. Other groups were treated by intraperitoneal route with SP-2 antibody at a dose of 10 μg/kg twice a week, or a control IgG at the same dose, or with docetaxel at a dose of 7.5 mg/kg once a week, or with a combination of SP-2 and docetaxel. Tumor growth was followed up by measuring lesion diameters up to 44 days after injection. Each group, control and treated, consisted of 8 animals.

Q: With `CC(=O)O[C@@]12CO[C@@H]1C[C@H](O)[C@@]1(C)C(=O)[C@H](O)C3=C(C)[C@@H](OC(=O)[C@H](O)[C@@H](NC(=O)OC(C)(C)C)c4ccccc4)C[C@@](O)([C@@H](OC(=O)c4ccccc4)[C@H]21)C3(C)C` [docetaxel] as the compound, how does the “tumor growth in comparison with control group” value read?
A: The value was “significantly reduced tumor growth”.
